In the NIST ThermoML archive (doi:10.1007/s10765-005-8591-6):

How the values were obtained:
[1] = xn = mol fraction of the nth substance listed; conditions: Fluid (supercritical or subcritical phases), Constant-volume piezometry, x1 = 1
[2] = Fluid (supercritical or subcritical phases), Constant-volume piezometry

FCF [difluoromethane] + FC(F)C(F)(F)F
[1]
Conditions | mass density [kg/m3]
313.16 K, 3353.7 kPa | 900.17
316.15 K, 4967.1 kPa | 899.97
319.15 K, 6571.4 kPa | 899.77
322.15 K, 8162.4 kPa | 899.57
328.16 K, 11400 kPa | 899.19
334.15 K, 14753 kPa | 898.82
337.15 K, 16580 kPa | 898.63

FCF [difluoromethane]
[2]
Conditions | mass density [kg/m3]
313.16 K, 3353.7 kPa | 900.17
316.15 K, 4967.1 kPa | 899.97
319.15 K, 6571.4 kPa | 899.77
322.15 K, 8162.4 kPa | 899.57
328.16 K, 11400 kPa | 899.19
334.15 K, 14753 kPa | 898.82
337.15 K, 16580 kPa | 898.63

FC(F)C(F)(F)F [pentafluoroethane]
[2]
Conditions | mass density [kg/m3]
258.16 K, 4595.6 kPa | 1403.78
261.15 K, 6579.8 kPa | 1403.47
262.14 K, 7284.6 kPa | 1403.36
267.16 K, 10809 kPa | 1402.84
270.19 K, 13003 kPa | 1402.53
273.15 K, 15076 kPa | 1402.23
275.15 K, 16572 kPa | 1402.04
